This is an account of results in publication PMC12542638, “Cystathionine β-synthase TtCbs1 from Tetrahymena thermophila catalyzes the synthesis of CdS quantum dots for methyl orange decolorization” (Applied and Environmental Microbiology, 2025).

The target of the assay is T1, His-TtCbs1 (TtCbs1, cystathionine β-synthase) (Tetrahymena thermophila, UniProt I7M350).
T1 construct: gene TTHERM_00558300
T1 sequence (I7M350 1-500): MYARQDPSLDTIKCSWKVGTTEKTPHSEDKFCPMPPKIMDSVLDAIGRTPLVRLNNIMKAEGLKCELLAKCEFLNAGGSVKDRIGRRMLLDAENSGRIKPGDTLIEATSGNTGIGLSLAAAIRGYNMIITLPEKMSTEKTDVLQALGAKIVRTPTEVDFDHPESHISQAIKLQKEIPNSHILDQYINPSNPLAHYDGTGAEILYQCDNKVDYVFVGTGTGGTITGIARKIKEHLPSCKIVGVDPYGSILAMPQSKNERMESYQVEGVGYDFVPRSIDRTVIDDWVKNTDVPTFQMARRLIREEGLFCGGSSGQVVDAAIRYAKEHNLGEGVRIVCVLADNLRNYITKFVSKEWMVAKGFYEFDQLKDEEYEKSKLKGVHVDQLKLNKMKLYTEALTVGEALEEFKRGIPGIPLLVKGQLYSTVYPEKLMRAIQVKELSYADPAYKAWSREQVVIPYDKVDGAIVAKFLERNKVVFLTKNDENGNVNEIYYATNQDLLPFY
Nature of the assay: CdS quantum dot formation from enzymatically released H2S, UV-Vis and fluorescence. The class given is biochemical. The following applies: 50 mM Tris-HCl pH 8.5, 37 °C, 0.1 mg/mL enzyme, 4 mM cysteine, 0.5 mM CdCl2; no signal without enzyme.

Turning to `N[C@@H](CS)C(=O)O` [L-cysteine], the “CdS quantum dot formation from enzymatically released H2S, UV-Vis and fluorescen” value is recorded as “Cysteine, as a thiol compound, serves as a substrate for His-TtCbs1 to produce H2S”.
